From ChEMBL document CHEMBL1133572, “Protease inhibitors: current status and future prospects” (J Med Chem, 2000) come the findings set out here.

Series [1] can be described thus: Inhibitory activity against alpha Chymotrypsinogen.
In series [2] the target is Calpain-2 catalytic subunit (Homo sapiens, UniProt P17655). The experiment in a line: Inhibitory activity against Calpain 2.
Series [3] concerns the target Procathepsin L (Homo sapiens, UniProt P07711). Description: Inhibitory activity against cathepsin L, lysosomal cysteine protease.
For series [4], the target named is Cathepsin B (Homo sapiens, UniProt P07858). Description: Inhibitory activity against Cathepsin B.
Series [5] concerns the target Cathepsin K (Homo sapiens) (UniProt P43235). Description: Inhibition of Cathepsin K.
Series [6] relates to Human immunodeficiency virus 1. Description: Inhibitory activity against saquinavir-resistant resistant strain of HIV-1. The format is functional, organism-based.
The test system of series [7] is Human immunodeficiency virus 1. Description: Inhibitory activity against indinavir-resistant resistant strain of HIV-1. Format: functional, organism-based.
Series [8] can be described thus: Orally bioavailability in rats. The conditions noted are these: rat, in vivo, po; read-out: Bioavailabiility. The format is ADME, organism-based.
A short description of series [9]: Binding affinity against Thrombin.
In series [10] the target is Neutrophil elastase (Homo sapiens, UniProt P08246).
Sequence of Neutrophil elastase (P08246 whole entry): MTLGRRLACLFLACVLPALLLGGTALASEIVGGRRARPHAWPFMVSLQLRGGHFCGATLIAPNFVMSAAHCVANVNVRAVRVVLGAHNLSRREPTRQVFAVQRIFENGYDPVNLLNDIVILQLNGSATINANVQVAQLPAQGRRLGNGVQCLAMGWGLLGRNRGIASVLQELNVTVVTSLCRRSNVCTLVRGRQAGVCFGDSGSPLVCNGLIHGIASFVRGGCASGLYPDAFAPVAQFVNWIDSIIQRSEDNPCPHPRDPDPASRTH
Series [11] can be described thus: Oral bioavailability in human. Format: ADME, organism-based. The conditions noted are these: in vivo.
For series [12], the target named is T1, Renin (Homo sapiens, UniProt P00797).
T1 sequence (P00797 whole entry): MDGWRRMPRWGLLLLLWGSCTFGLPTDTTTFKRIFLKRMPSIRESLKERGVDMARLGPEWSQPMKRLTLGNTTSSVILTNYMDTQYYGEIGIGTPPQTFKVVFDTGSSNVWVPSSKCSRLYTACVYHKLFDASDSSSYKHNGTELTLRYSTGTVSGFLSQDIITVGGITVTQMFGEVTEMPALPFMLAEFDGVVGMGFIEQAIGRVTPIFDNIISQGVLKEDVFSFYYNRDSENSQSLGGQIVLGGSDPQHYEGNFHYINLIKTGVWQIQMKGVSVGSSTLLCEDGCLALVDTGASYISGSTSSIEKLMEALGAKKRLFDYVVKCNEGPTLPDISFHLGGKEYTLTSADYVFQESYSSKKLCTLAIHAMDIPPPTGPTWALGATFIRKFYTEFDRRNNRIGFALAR

Series [13] is described as follows: Oral absorption in dog. Format: ADME, organism-based, Canis lupus familiaris. The conditions noted are these: in vivo, read-out: Absorption.
The nature of series [14]: Cmax value at the period of 0-24 hr after 125 mg dose. The arrangement: dose 125 mg. The following applies: in vivo. Format: ADME, organism-based.
The nature of series [15]: Oral absorption in rat. Format: ADME, organism-based. The following applies: in vivo, read-out: Absorption.
Series [16] in a line: Oral absorption in monkey. The format is ADME. The following applies: simiiformes, in vivo, read-out: Absorption.
The nature of series [17]: Cmax value at the period of 0-24 hr after 259 mg dose. The format is ADME, organism-based. The following applies: in vivo. The arrangement: dose 259 mg.
Series [18] can be described thus: Oral absorption in ferret. Format: ADME, organism-based, Mustela putorius furo. The conditions noted are these: in vivo, read-out: Absorption.
Series [19] deals with Cathepsin D (Homo sapiens, UniProt P07339). The experiment in a line: Inhibitory concentration against Human cathepsin D.
Sequence of Cathepsin D (P07339 65-162 limits assumed): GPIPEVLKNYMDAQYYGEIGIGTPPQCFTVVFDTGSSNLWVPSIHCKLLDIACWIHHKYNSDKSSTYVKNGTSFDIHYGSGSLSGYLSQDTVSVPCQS
Sequence of Cathepsin D (P07339 169-412 limits assumed): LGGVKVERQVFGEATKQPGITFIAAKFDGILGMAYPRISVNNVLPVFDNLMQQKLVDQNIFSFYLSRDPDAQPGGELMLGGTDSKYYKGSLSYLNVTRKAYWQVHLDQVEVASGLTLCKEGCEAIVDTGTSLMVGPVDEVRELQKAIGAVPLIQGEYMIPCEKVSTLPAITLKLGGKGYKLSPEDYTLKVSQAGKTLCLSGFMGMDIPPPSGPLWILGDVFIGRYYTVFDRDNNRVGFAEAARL
Series [20] in a line: Inhibitory concentration against Aspartic proteases.
Series [21] can be described thus: Cmax value at the period of 0-24 h after dosing. The format is ADME, organism-based. The following applies: in vivo.
Series [22] concerns Human immunodeficiency virus 1. The experiment in a line: (§1) Antiviral activity against HIV-1 protease. The format is functional, organism-based.
Series [23] deals with Human immunodeficiency virus. The description is as §1. The conditions noted are these: Human immunodeficiency virus 1. The format is functional, organism-based.
Series [24] is described as follows: Bioavailability in rat. Format: ADME, organism-based. The following applies: in vivo.
Series [25] deals with HIV-1 protease (Human immunodeficiency virus 1). The experiment in a line: Binding affinity against HIV-1 protease.
The nature of series [26]: Plasma half life of the compound. Format: ADME, cell-free.
Series [27] in a line: cytotoxicity against HIV protease enzyme. The format is organism-based. The following applies: human immunodeficiency virus, in vivo.
Series [28] can be described thus: Cmax value in the period of […] hr after dosing, when administered with ritonavir. Format: ADME, organism-based. The following applies: in vivo.
Series [29] concerns MT4. The experiment in a line: cells. The conditions noted are these: Homo sapiens.
Series [30] can be described thus: Cmax value in the period of […] hr after dosing. The format is ADME, organism-based. The conditions noted are these: in vivo.
For series [31], the target named is T2, Caspase-1 (Homo sapiens, UniProt P29466).
T2 sequence (P29466 whole entry): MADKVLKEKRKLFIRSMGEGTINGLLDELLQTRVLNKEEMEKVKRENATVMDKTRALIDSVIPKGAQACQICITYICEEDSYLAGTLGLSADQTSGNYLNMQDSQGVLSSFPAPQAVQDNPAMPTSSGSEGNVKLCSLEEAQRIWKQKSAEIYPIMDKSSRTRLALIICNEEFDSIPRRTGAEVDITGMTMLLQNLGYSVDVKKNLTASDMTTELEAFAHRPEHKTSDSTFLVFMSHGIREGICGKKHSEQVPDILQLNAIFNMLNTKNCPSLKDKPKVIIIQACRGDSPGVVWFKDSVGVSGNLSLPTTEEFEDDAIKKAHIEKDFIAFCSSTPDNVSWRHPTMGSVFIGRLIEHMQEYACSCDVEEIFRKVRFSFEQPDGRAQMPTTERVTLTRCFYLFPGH
The experiment in a line: The binding affinity against IL-1 beta converting enzyme.

Series [32] can be described thus: oral bioavailability in standard iv / po dogs. The format is ADME, organism-based, Canis lupus familiaris. The following applies: dog, in vivo, read-out: Bioavailabiility.

The structures appear in SMILES notation. pEC50, pIC50, pKi: −log10 of the molar value. Residues, ends and D or L forms follow the SMILES beside them. *: point of attachment. Cbz = O=C(OCc1ccccc1)*

Sequence of Cathepsin K (Homo sapiens) (P43235 whole entry): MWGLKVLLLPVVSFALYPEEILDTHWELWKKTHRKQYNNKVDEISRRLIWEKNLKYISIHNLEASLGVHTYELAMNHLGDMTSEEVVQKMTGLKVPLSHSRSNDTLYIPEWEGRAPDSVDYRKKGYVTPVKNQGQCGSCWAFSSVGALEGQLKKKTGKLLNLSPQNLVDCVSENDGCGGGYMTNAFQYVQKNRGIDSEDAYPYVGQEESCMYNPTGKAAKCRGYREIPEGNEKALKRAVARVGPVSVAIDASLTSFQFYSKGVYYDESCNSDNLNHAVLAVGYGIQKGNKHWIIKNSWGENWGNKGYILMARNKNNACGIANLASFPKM
Sequence of Procathepsin L (P07711 whole entry): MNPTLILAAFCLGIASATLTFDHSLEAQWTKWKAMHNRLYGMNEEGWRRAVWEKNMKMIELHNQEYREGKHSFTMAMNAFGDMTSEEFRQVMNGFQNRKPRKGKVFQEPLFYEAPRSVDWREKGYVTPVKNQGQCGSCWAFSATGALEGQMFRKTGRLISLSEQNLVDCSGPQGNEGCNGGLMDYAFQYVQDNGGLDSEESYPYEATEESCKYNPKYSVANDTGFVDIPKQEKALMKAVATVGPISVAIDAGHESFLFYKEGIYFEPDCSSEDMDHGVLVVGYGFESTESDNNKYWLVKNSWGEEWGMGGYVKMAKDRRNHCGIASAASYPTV
Sequence of Calpain-2 catalytic subunit (P17655 whole entry): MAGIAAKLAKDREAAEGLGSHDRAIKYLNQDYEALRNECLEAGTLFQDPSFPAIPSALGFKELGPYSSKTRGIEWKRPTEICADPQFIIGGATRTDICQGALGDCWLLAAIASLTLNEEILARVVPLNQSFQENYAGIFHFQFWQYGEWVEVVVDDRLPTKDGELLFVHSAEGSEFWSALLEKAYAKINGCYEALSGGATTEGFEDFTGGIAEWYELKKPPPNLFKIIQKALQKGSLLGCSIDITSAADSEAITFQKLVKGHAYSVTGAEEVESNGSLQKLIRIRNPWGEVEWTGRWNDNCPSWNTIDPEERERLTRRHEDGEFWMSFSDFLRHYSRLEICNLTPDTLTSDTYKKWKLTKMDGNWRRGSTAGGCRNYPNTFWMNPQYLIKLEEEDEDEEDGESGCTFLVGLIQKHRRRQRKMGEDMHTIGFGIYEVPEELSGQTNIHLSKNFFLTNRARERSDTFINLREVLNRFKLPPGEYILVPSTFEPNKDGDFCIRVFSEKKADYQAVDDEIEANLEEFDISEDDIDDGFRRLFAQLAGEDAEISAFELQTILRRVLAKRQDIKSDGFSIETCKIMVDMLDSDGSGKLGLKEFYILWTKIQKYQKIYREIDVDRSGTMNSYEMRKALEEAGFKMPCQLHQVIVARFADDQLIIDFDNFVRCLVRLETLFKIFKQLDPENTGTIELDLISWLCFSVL

The IC50 is the concentration at which inhibition is half-maximal. Usually pIC50 stands for the negative decadic logarithm of the IC50, by convention in mol/L. For `O=C[C@H](Cc1ccc(O)cc1)NC(=O)[C@H](Cc1ccccc1)NC(=O)OCc1ccccc1` (Cbz-Phe-Tyr-aldehyde), the IC50 in series [1] was > 1 µg/mL. Further, the figures for the pIC50 in series [2], in [3] and in series [4] were 6.74, 9.07 and 7.07, respectively.
In series [5], `CC(C)C[C@H](NC(=O)OCc1ccccc1)C(=O)NNC(=O)NNC(=O)[C@H](CC(C)C)NC(=O)OCc1ccccc1` yielded a Ki obs / [I] of 3.1 M⁻¹ s⁻¹.
Turning to `COC(=O)N[C@H](C(=O)N[C@@H](Cc1ccccc1)[C@@H](O)CN(Cc1ccc(-c2ccccn2)cc1)NC(=O)[C@@H](NC(=O)OC)C(C)(C)C)C(C)(C)C` [ATAZANAVIR], the pIC50 in series [6] and in series [7] was 7.00 in each case. For the same compound, the bioavailability in series [8] was determined as 20%.
In general, pKi refers to the Ki on a negative log10 scale, so that one unit is a factor of ten. For `N=C(N)c1ccc(CNC(=O)[C@@H]2CCN2C(=O)[C@H](NCC(=O)O)C2CCCCC2)cc1`, the pKi in [9] was 8.70.
`CC(SC(=O)c1cccs1)C(=O)NC1CCSC1` (configuration not stated) had a negative-log Ki (pKi) in [10] of 5.86.
`CC(C)(C)S(=O)(=O)C[C@@H](Cc1ccccc1)C(=O)N[C@@H](Cc1cnc[nH]1)C(=O)N[C@@H](CC1CCCCC1)[C@@H](O)[C@@H](O)C1CC1`: the bioavailability in [11] came out at 0.2%. Also, the pKi in series [12] was 9.15.
For `CC(C)C[C@H](O)[C@H](O)[C@H](CC1CCCCC1)NC(=O)[C@H](Cc1cscn1)NC(=O)[C@H](Cc1ccccc1)CS(=O)(=O)N1CCN(C)CC1` [ZANKIREN], the Fa amounted to 53% in series [13], 24% in [15], 8% in series [16] and 32% in series [18]. Besides, the Cmax was 430 ng/mL in series [14] and 1150 ng/mL in series [17].
Consider `CC(C)C[C@H](NC(=O)[C@H](C)NC(=O)C[C@H](O)[C@H](Cc1ccccc1)NC(=O)[C@@H](NC(=O)c1ccccn1)C(C)C)C(N)=O`, for which the pIC50 in series [19] is 7.68; in [20], 9.25.
In general, pEC50 refers to the EC50 on a negative log10 scale, so that one unit is a factor of ten. Usually half-life stands for the time in which the quantity being followed falls by half. As usually defined, the CC50 is the concentration giving 50% cytotoxicity. The compound `CC(C)[C@H](NC(=O)c1ccc2ccccc2n1)C(=O)N[C@@H](Cc1ccccc1)[C@H](O)CN1CC[C@@H](OCc2ccncc2)C[C@H]1C(=O)NC(C)(C)C` gave a Cmax in series [21] of 1.6 uM l-1. In addition, the values for the pEC50 in series [22] and in series [23] were 7.55 and 7.52, respectively. The compound further returned a bioavailability in [24] of 37%. This compound gave a negative-log Ki (pKi) in series [25] of 10.51. In [26], this compound had a half-life of 42 min. Besides, the midpoint of cytotoxicity in [27], the CC50, lay at 45000 nM.
Take `Cc1cccc(C)c1OCC(=O)N[C@@H](Cc1ccccc1)[C@@H](O)C[C@H](Cc1ccccc1)NC(=O)[C@H](C(C)C)N1CCCNC1=O` [LOPINAVIR]: the figures for the Cmax at 8 h in series [28] and in series [30] were 5500 ng/mL and < 100 ng/mL, respectively. Besides, the pEC50 in series [29] is 7.00.
Compound `O=C[C@H](CC(=O)O)NC(=O)[C@@H]1CCCN2C(=O)CCC(NC(=O)c3ccccc3)C(=O)N12` (some centres not stated) had a pKi in [31] of 8.30. For the same compound, in [32], the bioavailability was determined as 17%.
